Assay results as given in ChEMBL document CHEMBL4414613, “Antibacterial 5α-Spirostane Saponins from the Fruit of Cordyline manners-suttoniae” (J Nat Prod, 2019).
In brackets after ≈: the same amount, converted by molar mass. Activity calls are given as the source filed them. The calls are words filed in the database; no cut-off is given here.

Assays:
Klebsiella pneumoniae [1] = assay: Antibacterial activity against Klebsiella pneumoniae ATCC 12657 at 90 uM incubated for 24 hrs by microdilution assay; assay type: functional, organism-based
[2] = test system: Enterobacter cloacae subsp. cloacae; assay: Bactericidal activity against Enterobacter cloacae ATCC 13047 at 90 uM incubated for 24 hrs by microdilution assay; assay type: functional
Klebsiella aerogenes [3] = assay: Antibacterial activity against Enterobacter aerogenes ATCC 13048 at 90 uM incubated for 24 hrs by microdilution assay; assay type: functional
Staphylococcus aureus [4] = assay: Antibacterial activity against Staphylococcus aureus ATCC 25923 incubated for 24 hrs by microdilution assay; assay type: functional
Enterococcus faecium [5] = assay: Bactericidal activity against Enterococcus faecium ATCC 35667 at 90 uM incubated for 24 hrs by microdilution assay; assay type: functional, organism-based
[6] = Selectivity ratio of IC50 for human HaCaT cells to IC50 for human HDF cells by CellTiter 96 aqueous one solution assay
Pseudomonas aeruginosa [7] = assay: Bactericidal activity against Pseudomonas aeruginosa ATCC 49189 at 90 uM incubated for 24 hrs by microdilution assay; assay type: functional, organism-based
Enterococcus faecium [8] = assay: Bactericidal activity against Enterococcus faecium ATCC 35667 up to 86.8 uM incubated for 24 hrs by microdilution assay; assay type: functional, organism-based
Klebsiella aerogenes [9] = assay: Bactericidal activity against Enterobacter aerogenes ATCC 13048 at 90 uM incubated for 24 hrs by microdilution assay; assay type: functional
Acinetobacter baumannii [10] = assay: Bactericidal activity against Acinetobacter baumannii ATCC 19606 at 90 uM incubated for 24 hrs by microdilution assay; assay type: functional, organism-based; conditions: ATCC 19606 = CIP 70.34 = JCM 6841
Staphylococcus aureus [11] = assay: Bactericidal activity against Staphylococcus aureus ATCC 25923 at 90 uM incubated for 24 hrs by microdilution assay; assay type: functional, organism-based
Acinetobacter baumannii [12] = assay: Antibacterial activity against Acinetobacter baumannii ATCC 17978 at 90 uM incubated for 24 hrs by microdilution assay; assay type: functional, organism-based
Pseudomonas aeruginosa [13] = assay: Antibacterial activity against Pseudomonas aeruginosa ATCC 49189 at 90 uM incubated for 24 hrs by microdilution assay; assay type: functional, organism-based
Klebsiella pneumoniae [14] = assay: Bactericidal activity against Klebsiella pneumoniae ATCC 12657 at 90 uM incubated for 24 hrs by microdilution assay; assay type: functional, organism-based
Acinetobacter baumannii [15] = assay: Bactericidal activity against Acinetobacter baumannii ATCC 17978 at 90 uM incubated for 24 hrs by microdilution assay; assay type: functional, organism-based
Klebsiella pneumoniae [16] = assay: Antibacterial activity against Klebsiella pneumoniae ATCC 13883 at 90 uM incubated for 24 hrs by microdilution assay; assay type: functional, organism-based
Enterococcus faecium [17] = assay: Antibacterial activity against Enterococcus faecium ATCC 35667 incubated for 24 hrs by microdilution assay; assay type: functional
NHDF = assay: Cytotoxicity against human HDF cells assessed as reduction in cell viability incubated for 7 days by CellTiter 96 aqueous one solution assay; assay type: functional, cell-based; conditions: 168 h
Pseudomonas aeruginosa [18] = assay: Bactericidal activity against Pseudomonas aeruginosa ATCC 10145 at 90 uM incubated for 24 hrs by microdilution assay; assay type: functional, organism-based
Pseudomonas aeruginosa [19] = assay: Antibacterial activity against Pseudomonas aeruginosa ATCC 10145 at 90 uM incubated for 24 hrs by microdilution assay; assay type: functional, organism-based
Staphylococcus aureus [20] = assay: Antibacterial activity against Staphylococcus aureus ATCC 29247 incubated for 24 hrs by microdilution assay; assay type: functional
Acinetobacter baumannii [21] = assay: Antibacterial activity against Acinetobacter baumannii ATCC 19606 at 90 uM incubated for 24 hrs by microdilution assay; assay type: functional, organism-based; conditions: ATCC 19606 = CIP 70.34 = JCM 6841
Enterococcus faecium [22] = assay: Bactericidal activity against Enterococcus faecium C15 at 90 uM incubated for 24 hrs by microdilution assay; assay type: functional, organism-based
HaCaT = assay: Cytotoxicity against human HaCaT cells assessed as reduction in cell viability incubated for 4 days by CellTiter 96 aqueous one solution assay; assay type: cell-based; conditions: 96 h
Staphylococcus aureus [23] = assay: Bactericidal activity against Staphylococcus aureus ATCC 25923 up to 86.8 uM incubated for 24 hrs by microdilution assay; assay type: functional, organism-based
Klebsiella pneumoniae [24] = assay: Bactericidal activity against Klebsiella pneumoniae ATCC 13883 at 90 uM incubated for 24 hrs by microdilution assay; assay type: functional, organism-based
Enterococcus faecium [25] = assay: Antibacterial activity against Enterococcus faecium C15 incubated for 24 hrs by microdilution assay; assay type: functional
Staphylococcus aureus [26] = assay: Bactericidal activity against Staphylococcus aureus ATCC 29247 up to 86.8 uM incubated for 24 hrs by microdilution assay; assay type: functional, organism-based
Enterococcus faecium [27] = assay: Bactericidal activity against Enterococcus faecium C15 up to 86.8 uM incubated for 24 hrs by microdilution assay; assay type: functional, organism-based
Staphylococcus aureus [28] = assay: Bactericidal activity against Staphylococcus aureus ATCC 29247 at 90 uM incubated for 24 hrs by microdilution assay; assay type: functional, organism-based
[29] = test system: Enterobacter cloacae subsp. cloacae; assay: Antibacterial activity against Enterobacter cloacae ATCC 13047 at 90 uM incubated for 24 hrs by microdilution assay; assay type: functional
Enterococcus faecium [30] = assay: Bactericidal activity against Enterococcus faecium C15 incubated for 24 hrs by microdilution assay; assay type: functional; conditions: C15, 24 h
Staphylococcus aureus [31] = assay: Bactericidal activity against Staphylococcus aureus ATCC 29247 incubated for 24 hrs by microdilution assay; assay type: functional; conditions: ATCC 29247, 24 h
Staphylococcus aureus [32] = assay: Bactericidal activity against Staphylococcus aureus ATCC 25923 incubated for 24 hrs by microdilution assay; assay type: functional; conditions: ATCC 25923, 24 h
Enterococcus faecium [33] = assay: Bactericidal activity against Enterococcus faecium ATCC 35667 incubated for 24 hrs by microdilution assay; assay type: functional; conditions: ATCC 35667, 24 h

For C=C1CC[C@]2(OC1)O[C@H]1C[C@H]3[C@@H]4CC[C@H]5C[C@@H](O)C[C@@H](O[C@@H]6O[C@H](C)[C@H](O)[C@H](O)[C@H]6O)[C@]5(C)[C@H]4CC[C@]3(C)[C@H]1[C@@H]2C, which Activity (Klebsiella pneumoniae [1]) is on record?
The Activity was “inactive”.

And the Activity [2]?
Its Activity is “inactive”.

And the Activity (Klebsiella aerogenes [3])?
Its Activity is “inactive”.

And the MIC75 (Staphylococcus aureus [4])?
Its MIC75 is 5.4 µM (≈ 3.11 µg/mL).

And the Activity (Enterococcus faecium [5])?
Its Activity is “inactive”.

And the “Ratio IC50” value [6]?
The value was 3 - 11.

And the Activity (Pseudomonas aeruginosa [7])?
Its Activity is “inactive”.

What about the Activity (Enterococcus faecium [8]) of the same compound?
Its Activity is “inactive”.

What about the Activity (Klebsiella aerogenes [9]) of the same compound?
The Activity was “inactive”.

And the Activity (Acinetobacter baumannii [10])?
Its Activity is “inactive”.

What about the Activity (Staphylococcus aureus [11]) of the same compound?
Its Activity is “inactive”.

And the Activity (Acinetobacter baumannii [12])?
Its Activity is “inactive”.

And the Activity (Pseudomonas aeruginosa [13])?
The Activity was “inactive”.

And the Activity (Klebsiella pneumoniae [14])?
Its Activity is “inactive”.

What about the Activity (Acinetobacter baumannii [15]) of the same compound?
The Activity was “inactive”.

And the Activity (Klebsiella pneumoniae [16])?
The Activity was “inactive”.

And the MIC75 (Enterococcus faecium [17])?
The MIC75 was 21.7 µM (≈ 12.5 µg/mL).

And the IC50 (NHDF)?
The IC50 was 4.2 µM.

And the Activity (Pseudomonas aeruginosa [18])?
Its Activity is “inactive”.

What about the Activity (Pseudomonas aeruginosa [19]) of the same compound?
The Activity was “inactive”.

What about the MIC75 (Staphylococcus aureus [20]) of the same compound?
The MIC75 was 5.4 µM (≈ 3.11 µg/mL).

What about the Activity (Acinetobacter baumannii [21]) of the same compound?
The Activity was “inactive”.

And the Activity (Enterococcus faecium [22])?
Its Activity is “inactive”.

What about the IC50 (HaCaT) of the same compound?
Its IC50 is 23.9 µM.

What about the Activity (Staphylococcus aureus [23]) of the same compound?
Its Activity is “inactive”.

And the Activity (Klebsiella pneumoniae [24])?
The Activity was “inactive”.

What about the MIC75 (Enterococcus faecium [25]) of the same compound?
Its MIC75 is 21.7 µM (≈ 12.5 µg/mL).

And the Activity (Staphylococcus aureus [26])?
Its Activity is “inactive”.

And the Activity (Enterococcus faecium [27])?
Its Activity is “inactive”.

And the Activity (Staphylococcus aureus [28])?
The Activity was “inactive”.

What about the Activity [29] of the same compound?
The Activity was “inactive”.

Which Activity (Klebsiella pneumoniae [1]) does the source give for C[C@@H]1CC[C@]2(OC1)O[C@H]1C[C@H]3[C@@H]4CC[C@H]5C[C@@H](O)C[C@@H](O[C@@H]6O[C@H](C)[C@H](O)[C@H](O)[C@H]6O)[C@]5(C)[C@H]4CC[C@]3(C)[C@H]1[C@@H]2C here?
The Activity was “inactive”.

And the Activity [2]?
Its Activity is “inactive”.

And the Activity (Klebsiella aerogenes [3])?
The Activity was “inactive”.

And the MBC (Enterococcus faecium [30])?
Its MBC is 43.2 µM (≈ 25 µg/mL).

And the MIC75 (Staphylococcus aureus [4])?
The MIC75 was 21.6 µM (≈ 12.5 µg/mL).

And the “Ratio IC50” value [6]?
Its value is 3 - 11.

What about the Activity (Pseudomonas aeruginosa [7]) of the same compound?
The Activity was “inactive”.

What about the MBC (Staphylococcus aureus [31]) of the same compound?
The MBC was 21.6 µM (≈ 12.5 µg/mL).

And the Activity (Klebsiella aerogenes [9])?
Its Activity is “inactive”.

And the Activity (Acinetobacter baumannii [10])?
The Activity was “inactive”.

What about the Activity (Acinetobacter baumannii [12]) of the same compound?
The Activity was “inactive”.

What about the MBC (Staphylococcus aureus [32]) of the same compound?
The MBC was 21.6 µM (≈ 12.5 µg/mL).

And the Activity (Pseudomonas aeruginosa [13])?
The Activity was “inactive”.

And the Activity (Klebsiella pneumoniae [14])?
The Activity was “inactive”.

What about the Activity (Acinetobacter baumannii [15]) of the same compound?
Its Activity is “inactive”.

And the Activity (Klebsiella pneumoniae [16])?
Its Activity is “inactive”.

And the MBC (Enterococcus faecium [33])?
Its MBC is 43.2 µM (≈ 25 µg/mL).

And the MIC75 (Enterococcus faecium [17])?
The MIC75 was 21.6 µM (≈ 12.5 µg/mL).

What about the IC50 (NHDF) of the same compound?
Its IC50 is 4.3 µM.

What about the Activity (Pseudomonas aeruginosa [18]) of the same compound?
The Activity was “inactive”.

What about the Activity (Pseudomonas aeruginosa [19]) of the same compound?
The Activity was “inactive”.

And the MIC75 (Staphylococcus aureus [20])?
Its MIC75 is 21.6 µM (≈ 12.5 µg/mL).

What about the Activity (Acinetobacter baumannii [21]) of the same compound?
The Activity was “inactive”.

And the IC50 (HaCaT)?
Its IC50 is 18.2 µM.

And the Activity (Klebsiella pneumoniae [24])?
Its Activity is “inactive”.

What about the MIC75 (Enterococcus faecium [25]) of the same compound?
Its MIC75 is 21.6 µM (≈ 12.5 µg/mL).

And the Activity [29]?
Its Activity is “inactive”.
